The supplement of paper PMC10307832

How the values were obtained:
Test in all cases: relative viability (nuclei count vs DMSO), 5 days (fraction); higher = more cells survive
IPA-3 + Bortezomib = compound: C1=CC=C2C(=C1)C=CC(=C2SSC3=C(C=CC4=CC=CC=C43)O)O [IPA-3] + CC(C)C[C@H](NC(=O)[C@H](Cc1ccccc1)NC(=O)c1cnccn1)B(O)O [Bortezomib] (partner 0.002 µM)
How it was run: (§1)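 Lung cancer cell lines were pin-tool dosed in 1536-well plates on the day after seeding, with either a lone drug or a fixed anchor-drug dose plus five library-drug doses (not always all listed) in √10 steps. Nuclei were counted on 4× images after 5 days. Relative viability is the ratio of treated-well to vehicle-well nuclei counts, with each value a median of duplicate plates.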

IPA-3 + Linsitinib = compound: C1=CC=C2C(=C1)C=CC(=C2SSC3=C(C=CC4=CC=CC=C43)O)O [IPA-3] + C[C@]1(O)C[C@@H](c2nc(-c3ccc4ccc(-c5ccccc5)nc4c3)c3c(N)nccn32)C1 [Linsitinib] (partner 1 µM)
How it was run: as §1

IPA-3 + Phenformin = compound: C1=CC=C2C(=C1)C=CC(=C2SSC3=C(C=CC4=CC=CC=C43)O)O [IPA-3] + N=C(N)NC(=N)NCCc1ccccc1 [Phenformin] (partner 250 µM)
How it was run: as §1

RAF265 + Dasatinib = compound: Cn1c(Nc2ccc(C(F)(F)F)cc2)nc2cc(Oc3ccnc(-c4ncc(C(F)(F)F)[nH]4)c3)ccc21 [RAF265] + Cc1nc(Nc2ncc(C(=O)Nc3c(C)cccc3Cl)s2)cc(N2CCN(CCO)CC2)n1 [Dasatinib] (partner 0.075 µM)
How it was run: as §1

Row | Cell Line | relative viability (IPA-3 + Bortezomib; first compound 0.2 µM) | relative viability (IPA-3 + Bortezomib; first compound 0.6325 µM) | relative viability (IPA-3 + Bortezomib; first compound 2 µM) | relative viability (IPA-3 + Bortezomib; first compound 6.325 µM) | relative viability (IPA-3 + Bortezomib; first compound 20 µM) | relative viability (IPA-3 + Linsitinib; first compound 0.2 µM) | relative viability (IPA-3 + Linsitinib; first compound 0.6325 µM) | relative viability (IPA-3 + Linsitinib; first compound 2 µM) | relative viability (IPA-3 + Linsitinib; first compound 6.325 µM) | relative viability (IPA-3 + Linsitinib; first compound 20 µM) | relative viability (IPA-3 + Phenformin; first compound 0.2 µM) | relative viability (IPA-3 + Phenformin; first compound 0.6325 µM) | relative viability (IPA-3 + Phenformin; first compound 2 µM) | relative viability (IPA-3 + Phenformin; first compound 6.325 µM) | relative viability (IPA-3 + Phenformin; first compound 20 µM) | relative viability (RAF265 + Dasatinib; first compound 0.01 µM) | relative viability (RAF265 + Dasatinib; first compound 0.03162 µM) | relative viability (RAF265 + Dasatinib; first compound 0.1 µM) | relative viability (RAF265 + Dasatinib; first compound 0.3162 µM) | relative viability (RAF265 + Dasatinib; first compound 1 µM)
1 | HCC-15 | 1.34 | 0.99 | 0.838 | 1.02 | 1.21 | 0.934 | 0.81 | 0.951 | 0.888 | 0.918 | 0.634 | 0.343 | 0.469 | 0.477 | 0.583 | 0.66 | 0.662 | 0.688 | 0.426 | 0.337
2 | LCLC-103H | 1.13 | 1.06 | 1.17 | 1.17 | 1.18 | 1.1 | 1.07 | 1.01 | 1.1 | 1.16 | 0.299 | 0.344 | 0.365 | 0.354 | 0.372 | 0.431 | 0.467 | 0.478 | 0.386 | 0.338
3 | NCI-H23 | 1.39 | 0.964 | 1.08 | 1.06 | 0.797 | 0.613 | 0.667 | 0.522 | 0.603 | 0.645 | 0.819 | 0.781 | 0.855 | 0.773 | 0.734 | 0.716 | 0.75 | 0.622 | 0.48 | 0.325
4 | NCI-H1792 | 1.1 | 0.928 | 1.08 | 0.895 | 1.16 | 0.626 | 0.449 | 0.693 | 0.518 | 0.666 | 0.371 | 0.44 |  |  | 0.408 | 0.848 | 0.83 | 0.759 | 0.575 | 0.293
5 | NCI-H596 | 1.33 | 1.12 | 1.18 | 0.914 | 1.17 | 1.3 | 0.993 | 1.04 | 1.09 | 1.14 | 0.906 | 0.829 | 0.668 | 0.817 | 0.787 | 0.63 | 0.76 | 0.582 | 0.612 | 0.366
6 | NCI-H1563 | 1.03 | 0.689 | 0.801 | 0.996 | 0.846 | 1.31 | 1.24 | 1.32 | 1.34 | 1.3 | 0.703 | 0.644 | 0.655 | 0.727 | 0.735 | 0.469 | 0.482 | 0.508 | 0.45 | 0.441
7 | NCI-H460 | 1.64 | 1 | 1.24 | 1.07 | 1.05 | 1.69 | 0.603 | 0.968 | 0.711 | 0.771 | 0.835 | 0.501 | 0.495 | 0.448 | 0.446 | 0.686 | 0.535 | 0.596 | 0.371 | 0.266
8 | HCC-366 | 1.36 | 0.996 | 1.04 | 1.08 | 1.25 | 0.996 | 0.627 | 0.723 | 0.756 | 0.696 | 0.715 | 0.584 | 0.636 | 0.567 | 0.752 | 0.724 | 0.627 | 0.664 | 0.583 | 0.511
9 | NCI-H2085 | 1.19 | 0.99 | 1.01 | 0.937 | 1.27 | 0.923 | 0.954 | 0.856 | 0.992 | 1.21 | 0.82 | 0.651 | 0.744 | 0.678 | 0.585 | 0.241 | 0.315 | 0.289 | 0.205 | 0.276
10 | PC-14 | 1.09 | 0.79 | 0.914 | 0.805 | 1.04 | 0.945 | 0.96 | 1.01 | 0.922 | 1.09 | 0.614 | 0.521 | 0.572 | 0.497 | 0.801 | 0.262 | 0.274 | 0.241 |  | 0.0905
11 | HOP-62 | 1.09 | 0.858 | 0.722 | 0.701 | 0.93 | 0.903 | 1.07 | 0.754 | 1.05 | 1.2 | 0.79 | 0.582 | 0.679 | 0.636 | 0.645 | 0.747 | 0.618 | 0.647 | 0.691 | 0.504
12 | NCI-H2087 | 1.04 | 0.796 | 0.828 | 0.749 | 0.838 | 1.1 | 1.05 | 0.925 | 0.86 | 0.995 | 0.596 | 0.412 | 0.555 | 0.476 | 0.466 | 0.743 | 0.76 | 0.6 | 0.639 | 0.383
13 | PC-3 [JPC-3] | 0.92 | 0.885 | 0.786 | 0.824 | 0.873 | 0.965 | 0.904 | 0.977 | 0.994 | 0.922 | 0.462 | 0.47 | 0.495 | 0.499 | 0.489 | 0.985 | 0.908 | 1 |  | 0.696
14 | H3255 | 0.818 | 0.709 | 0.601 | 0.754 | 0.846 | 1.09 | 0.874 | 0.932 | 0.963 | 1.11 | 0.443 | 0.368 | 0.343 | 0.386 | 0.408 | 0.526 | 0.332 | 0.381 |  | 0.319
15 | EMC-BAC-2 | 1.16 | 1.11 | 1.04 | 1.04 | 1.22 | 0.855 | 0.808 | 0.884 | 0.804 | 0.907 | 0.642 | 0.467 | 0.541 | 0.576 | 0.594 | 0.318 | 0.256 | 0.196 | 0.224 | 0.0752
16 | CAL-12T | 0.956 | 0.987 | 0.847 | 0.935 | 1.15 | 0.93 | 0.715 | 0.914 | 0.79 | 0.935 | 0.763 | 0.512 | 0.529 | 0.529 | 0.694 | 0.313 | 0.312 | 0.191 | 0.196 | 0.103
17 | NCI-H650 | 0.972 | 0.83 | 0.798 | 0.858 | 1.22 | 0.89 | 0.966 | 0.877 | 0.788 | 1.07 | 0.492 | 0.511 | 0.457 | 0.463 | 0.451 | 0.464 | 0.429 | 0.369 | 0.265 | 0.259
18 | NCI-H1355 | 1.44 | 1.25 | 1.18 | 1.16 | 1.3 | 0.942 | 0.82 | 0.786 | 0.742 | 0.895 | 0.471 | 0.448 | 0.476 | 0.44 | 0.482 | 0.804 | 0.709 | 0.545 | 0.601 | 0.264
19 | NCI-H838 | 1.89 | 0.847 | 0.667 | 1.03 | 0.815 | 1.34 | 0.983 | 1.1 | 0.978 | 1.13 | 0.857 | 0.576 | 0.524 | 0.517 | 0.666 | 0.332 | 0.3 | 0.288 | 0.256 | 0.256
20 | NCI-H322M | 1.31 | 1.21 | 1.19 | 1.32 | 1.23 | 1.01 | 0.941 | 0.987 | 0.947 | 0.978 | 0.821 | 0.749 | 0.835 | 0.89 | 0.96 | 0.267 | 0.278 | 0.229 | 0.303 | 0.213
21 | NCI-H661 | 0.972 | 0.779 | 0.915 | 0.967 | 0.897 | 0.52 | 0.466 | 0.712 | 0.598 | 0.646 | 0.31 | 0.266 | 0.293 | 0.259 | 0.272 | 0.925 | 0.771 | 0.546 | 0.598 | 0.42
22 | NCI-H2228 | 1.24 | 1.04 | 1.07 | 1.15 | 0.855 | 0.706 | 0.857 | 0.642 | 0.715 | 0.887 | 0.556 | 0.31 | 0.336 | 0.377 | 0.284 | 0.484 | 0.535 | 0.397 | 0.179 | 0.139
23 | NCI-H520 | 1.13 | 0.769 | 0.536 | 0.684 | 0.487 | 1.02 | 0.951 | 1.03 | 0.855 | 0.982 | 0.817 | 0.63 | 0.369 | 0.512 | 0.712 | 0.177 | 0.206 | 0.197 | 0.187 | 0.171
24 | NCI-H441 | 0.446 |  | 0.285 | 0.734 | 0.589 | 0.568 | 0.568 | 0.611 | 0.541 | 0.515 | 1 | 0.715 | 0.838 | 0.742 | 0.513 | 0.692 | 0.773 | 0.518 | 0.431 | 0.496
